From PubChem BioAssay (NCI)
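Briefly, cells in 96-well plates were exposed to five compound concentrations for 48 h, and endpoints were estimated by linear interpolation. GI50 = concentration required for 50% inhibition of growth. TGI denotes the concentration required for complete inhibition of growth.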

Columns and labels:
Test in all cases: NCI anticancer screen, dose series, 48 h
CCRF-CEM leukemia = tested on: CCRF-CEM leukemia
HCC-2998 colon = tested on: HCC-2998 colon
HOP-62 NSCLC = tested on: HOP-62 NSCLC
HT29 colon = tested on: HT29 colon
MCF7 breast = tested on: MCF7 breast
NCI-H23 lung = tested on: NCI-H23 lung
SF-295 CNS = tested on: SF-295 CNS
U251 CNS = tested on: U251 CNS
PC-3 prostate = tested on: PC-3 prostate
TK-10 renal = tested on: TK-10 renal

Structure (SMILES)	TGI (CCRF-CEM leukemia) [µM]	TGI (HCC-2998 colon) [µM]	TGI (HOP-62 NSCLC) [µM]	TGI (HT29 colon) [µM]	TGI (MCF7 breast) [µM]	TGI (NCI-H23 lung) [µM]	TGI (SF-295 CNS) [µM]	TGI (U251 CNS) [µM]	TGI (PC-3 prostate) [µM]	TGI (TK-10 renal) [µM]	GI50 (CCRF-CEM leukemia) [µM]	GI50 (HCC-2998 colon) [µM]	GI50 (HT29 colon) [µM]	GI50 (MCF7 breast) [µM]	GI50 (NCI-H23 lung) [µM]	GI50 (PC-3 prostate) [µM]	GI50 (SF-295 CNS) [µM]	GI50 (TK-10 renal) [µM]	GI50 (U251 CNS) [µM]
COc1cccc2c1C(=O)c1c(O)c3c(c(O)c1C2=O)CC(O)(C(C)=O)CC3O (centres undefined)	23.2	11.1	11.3	36.4	16.2	16.4	19.5	14.9											
O=c1[nH]c(-c2ccc(Cl)cc2)cc2ccsc12		9.61	> 100	> 100	> 100	> 100	23.4	> 100	> 100	8.22									
CCOC(=O)C1=C(C)N(c2ccc(Cl)cc2)C2(O)C=CC(Nc3ccc(Cl)cc3)=C3C(=O)N(c4ccccc4)C(=O)C312 (centres undefined)	8.39		14.9	16.9	9.3	20	13.8	39.5	22.8	52.1									
CN1CCN(Cn2nc(-c3cc(F)c(Cl)cc3Cl)oc2=S)CC1	> 100	> 100		54.7	> 100	> 100	> 100	> 100	> 100	> 100	33.4	55.9	24.5	30.2	76.5	43	42.4	39.3	35.1
